Laboratory results taken from patent publication US20190083460A1, “ANALGESIC COMPOUNDS” (ZENO ROYALTIES & MILESTONES, LLC, priority 2016, published 2019).

Tested on: male ICR mice
Test: Formalin Paw Test
Type: in vivo
Settings: 30 mg/kg intraperitoneal; for Early Phase: early/acute phase (0-10 minutes) after 2% formalin into hind paw; for Late Phase: late/tonic phase (10-35 minutes) after 2% formalin into hind paw
Description: One test compound or the vehicle was administered to each mouse in each test group (8 mice per group). Non-fasted male ICR mice weighing 23±3 g were used. Test compounds were administered at a concentration of 3 mg/kg, 10 mg/kg, 15 mg/kg, 30 mg/kg, 60 mg/kg, 100 mg/kg, 200 mg/kg or 300 mg/kg; morphine was administered at a concentration of 5 mg/kg; and acetaminophen was administered at a concentration of 200 mg/kg. The control group received the vehicle (5% DMSO/40% PEG400/20% HPbCD/Saline). After 30 or 60 minutes, a 2% formalin solution (0.02 mL) was injected into one hind paw (sub-plantar) of each mouse. Responses were measured every 5 minutes after the formalin injection for 35 minutes.
The results in Table A are for intraperitoneal administration. In Table A, ‘A’ designates <70 licks/sec, ‘B’ designates ≥70 licks/sec and <165 licks/sec, and ‘C’ designates ≥165 licks/sec.

SMILES | Early Phase | Late Phase
NC1CC2(COC2)C1 [Compound I-1] | B (‘B’ designates ≥70 licks/sec and <165 licks/sec) | B (‘B’ designates ≥70 licks/sec and <165 licks/sec)
NC1CCCOCC1 (stereo not shown) [Compound I-4] | B (‘B’ designates ≥70 licks/sec and <165 licks/sec) | C (‘C’ designates ≥165 licks/sec)
